Among the data in ChEMBL document CHEMBL3351396, “Synthesis of the novel elemonic acid derivatives as Pin1 inhibitors” (Bioorg Med Chem Lett, 2014) are IC50 values, retold here.

For this experiment, the target named is Peptidyl-prolyl cis-trans isomerase NIMA-interacting 1 (Homo sapiens, UniProt Q13526). As to the kind of experiment: Inhibition of Pin1 (unknown origin) using Suc-Ala-Glu-Pro-Phe-4-nitroanilide as substrate after 30 mins by protease-coupled assay.
Peptidyl-prolyl cis-trans isomerase NIMA-interacting 1, sequence (Q13526 whole entry): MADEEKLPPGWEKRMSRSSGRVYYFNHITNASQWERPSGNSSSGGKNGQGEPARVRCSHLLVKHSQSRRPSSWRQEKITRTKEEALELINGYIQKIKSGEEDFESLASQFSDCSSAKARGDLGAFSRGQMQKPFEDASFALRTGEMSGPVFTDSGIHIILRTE

`CC1(C)C(=O)CC[C@]2(C)C3=C(CC[C@@H]12)[C@@]1(C)CC[C@@H]([C@H](CCC(N)=O)C(=O)OCc2ccccc2)[C@]1(C)CC3`: the IC50 was > 40 µM. The figure for `COC(=O)CC[C@H](C(=O)OCc1ccccc1)[C@@H]1CC[C@]2(C)C3=C(CC[C@@]12C)[C@@]1(C)CCC(=O)C(C)(C)[C@@H]1CC3` is > 40 µM; for `CC(C)=CCC[C@H](C(=O)OCc1ccccc1)[C@@H]1CC[C@]2(C)C3=C(CC[C@@]12C)[C@@]1(C)C/C(=C\C(=O)O)C(=O)C(C)(C)[C@@H]1CC3` it is 0.57 µM. Consider `CC(C)=CCC[C@H](C(=O)O)[C@@H]1CC[C@]2(C)C3=C(CC[C@@]12C)[C@@]1(C)CCC(=O)C(C)(C)[C@@H]1CC3`, for which half-maximal inhibition (IC50) required 13.2 µM. Compared with the last compound, the IC50 is about 23-fold higher. For `CC1(C)C(=O)CC[C@]2(C)C3=C(CC[C@@H]12)[C@@]1(C)CC[C@@H]([C@H](CCc2nnn[nH]2)C(=O)OCc2ccccc2)[C@]1(C)CC3`, the midpoint of inhibition, the IC50, lay at 2.6 µM.

`CC1(C)C(=O)CC[C@]2(C)C3=C(CC[C@@H]12)[C@@]1(C)CC[C@@H]([C@H](CCC(=O)O)C(=O)OCc2ccccc2)[C@]1(C)CC3=O` displayed a concentration for half-maximal inhibition (IC50) of 1.47 µM. Turning to `CC1(C)C(=O)CC[C@]2(C)C3=C(CC[C@@H]12)[C@@]1(C)CC[C@@H]([C@H](CCC(=O)N2CCNCC2)C(=O)OCc2ccccc2)[C@]1(C)CC3`, the IC50 is > 40 µM. For the compound `CC1(C)C(=O)CC[C@]2(C)C3=C(CC[C@@H]12)[C@@]1(C)CC[C@@H]([C@H](CCC#N)C(=O)OCc2ccccc2)[C@]1(C)CC3`, 14.1 µM corresponded to half-maximal inhibition (IC50). The figure for `CC1(C)C(=O)CC[C@]2(C)C3=C(C(=O)C[C@@H]12)[C@@]1(C)CC[C@@H]([C@H](CCC(=O)O)C(=O)OCc2ccccc2)[C@]1(C)CC3` is > 40 µM. In turn, `CC1(C)C(=O)CC[C@]2(C)C3=C(CC[C@@H]12)[C@@]1(C)CC[C@@H]([C@H](CCC(=O)O)C(=O)OCc2ccccc2)[C@]1(C)CC3` gave an IC50 of 3.68 µM. The figure for `CC(C)=CCC[C@H](C(=O)OCc1ccccc1)[C@@H]1CC[C@]2(C)C3=C(CC[C@@]12C)[C@@]1(C)C/C(=C\C(=O)N2CCN(C)CC2)C(=O)C(C)(C)[C@@H]1CC3` is 32.3 µM; for `CC(C)=CCC[C@H](C(=O)OCc1ccccc1)[C@@H]1CC[C@]2(C)C3=C(CC[C@@]12C)[C@@]1(C)C/C(=C\C(=O)N2CCNCC2)C(=O)C(C)(C)[C@@H]1CC3` it is > 40 µM. The figure for `CN1CCN(C(=O)CC[C@H](C(=O)OCc2ccccc2)[C@@H]2CC[C@]3(C)C4=C(CC[C@@]23C)[C@@]2(C)CCC(=O)C(C)(C)[C@@H]2CC4)CC1` is 31.5 µM; for `CN(C)C(=O)CC[C@H](C(=O)OCc1ccccc1)[C@@H]1CC[C@]2(C)C3=C(CC[C@@]12C)[C@@]1(C)CCC(=O)C(C)(C)[C@@H]1CC3` it is 0.83 µM.

As usually defined, the IC50 is the concentration needed to halve the response being measured. High values mean lower potency, low ones higher potency.
